Reference: patent publication US20240025892A1 (priority 2020, published 2024)
Entries after “also recorded” stand apart in the source; their conditions may differ.

Experiments:
[1] = 3-week mouse study: tolerability and serum drug levels; type: in vivo, mice
Method: […]. For oral gavage, cmpd. 51 was dissolved in vehicle solution of 15% hydroxy-propyl beta-cyclodextrin in sterile water.
(§1) […]. In addition, one group of mice with oral vehicle solution (negative control) and another group of mice were treated with once daily subcutaneous hPTH(1-34) (80 μg/kg) injections (positive control). […].

[2] = tested on: bone cell marker genes, sclerostin; experiment: 3-week mouse study: cortical bone RT-qPCR and sclerostin immunohistochemistry; type: in vivo, mice; details: 3 weeks of treatment
Method: . For this, cortical bone RNA isolated from mice following three weeks of cmpd. 51 treatment were analyzed and subjected to RT-qPCR for well-established bone cell marker genes. […]. […] Therefore, sclerostin (encoded by the Sost gene) expression in bone in response to cmpd. 51 treatment was also assessed by RT-qPCR and immunohistochemistry. […]. Cmpd. 55A (FIG. 17) was also identified. […]

SOST = SOST gene expression in Ocy454 cells (RT-qPCR); type: cell-based; details: 4 hours
HDAC4/5 = HDAC4/5 phosphorylation immunoblot in Ocy454 cells; type: cell-based; details: 2 hours
Method: Immunoblotting was performed as previously described (see e.g., Wein et al, Nature Communications, 2016, 7:13176; and Sato et al, Nature Communications, 2020, 11(1):3282). […]. Adherent cells were washed with ice cold PBS, then scraped into TNT buffer on ice. Material was then transferred into Eppendorf tubes kept on ice, vortexed at top speed for 30 seconds, then centrifuged at top speed for 6 minutes at 4° C. For subcellular fractionation, cells were initially resuspended in hypotonic lysis buffer (20 mM HEPES, 10 mM KCl, 1 mM MgCl2, 0.1% Triton X-100, 5% glycerol supplemented with DTT, protease inhibitors, and phosphatase inhibitors) for 5 minutes on ice. Nuclear pellets were spun down at 5,000 rpm for 5 minutes, and the supernatant was saved as the cytoplasmic lysate. Thereafter, the nuclear pellet was washed once in 1 mL hypotonic lysis buffer. The nuclear pellet was then resuspended in hypertonic lysis buffer (20 mM HEPES, 400 mM NaCl, 1 mM EDTA, 0.1% Triton X-100, 5% glycerol supplemented with DTT, protease inhibitors, and phosphatase inhibitors), followed by vortexing twice for 30 seconds. Debris was spun down at 14,000 rpm for 5 minutes, and the supernatant was saved as the nuclear lysate. For immunoblotting, lysates or immunoprecipitates were separated by SDS-PAGE and proteins were transferred to nitrocellulose. Membranes were blocked with 5% milk in tris-buffered saline plus 0.05% Tween-20 (TBST) and incubated with primary antibody overnight at 4° C. The next day, membranes were washed, incubated with appropriate HRP-coupled secondary antibodies, and signals detected with ECL Western Blotting Substrate (Pierce), ECL Plus Western Blotting Substrate (Pierce), or SuperSignal West Femto Maximum Sensitivity Substrate (Thermo scientific). The primary antibodies phospho-HDAC4/5/7 (S246/S259/S155) (Cell Signaling Technology, 3443) and total HDAC5 (Assay Biotech, C0225).

CRTC2 (TORC2) = experiment: CRTC2 nuclear translocation (PathHunter U2OS); type: cell-based
Procedure, shortened: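 U2OS enzyme-fragment complementation cells (ED-tagged CRTC2, EA-tagged nuclear TAZ domain) treated 90 minutes, duplicate 5-point 4-fold dilutions from 10 μM. Chemiluminescent substrate signal; maximal translocation expressed as percent of forskolin-stimulated signal.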

RANKL = RANKL gene expression in Ocy454 cells (RT-qPCR); details: for RANKL expression: 4 hours, RT-qPCR;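 as to all read-outs here: Ocy454 cells moved to 37 °C for osteocytic differentiation before compound exposure, RANKL mRNA by SYBR Green qRT-PCR, 2^−ΔΔCT with β-actin normalization, duplicate wells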
[3] = tested on: eugonadal 8 week old male mice; experiment: 3-week mouse study: serum mineral metabolism parameters and bone turnover markers; type: in vivo; details: for serum CTX (bone resorption marker) / serum P1NP (bone formation marker): 40 mg/kg oral, 21 days, compared to vehicle; for serum 1,25-vitamin D / serum BUN / serum PTH levels / serum calcium / serum phosphorus: after 21 days of treatment, 2 hours after final dose
Method: . In addition, one group of mice with oral vehicle solution (negative control) and another group of mice were treated with once daily subcutaneous hPTH(1-34) (80 μg/kg) injections (positive control). […]. Serum mineral metabolism parameters were measured in mice in all 5 treatment groups after 21 days of treatment (serum was collected 2 hours after the final treatment dose). […]. Serum bone turnover markers (P1NP, a marker of bone formation; CTX, a marker of bone resorption) were next measured on samples collected after 21 days of treatment. […]

[4] = Initial mouse pharmacokinetic study; type: in vivo
[5] = tested on: eugonadal 8 week old male mice; experiment: 3-week mouse study: femur microCT; type: in vivo; details: 3 weeks; for midshaft cortical bone tissue mineral density (TMD), microCT: femur
Method: as §1

[6] = tested on: eugonadal 8 week old male mice; experiment: 3-week mouse study: tibia histology and femur histomorphometry; type: in vivo; details: 3 weeks
Method: as §1

SIK3 in HEK293T cells = SIK3 in HEK293T cells (Homo sapiens (Human), UniProt Q9Y2K2); experiment: cell-based; details: read-out: IC50 for SIK3 (nanoBRET)
SIK3 in HEK293T cells, sequence (Q9Y2K2 whole entry): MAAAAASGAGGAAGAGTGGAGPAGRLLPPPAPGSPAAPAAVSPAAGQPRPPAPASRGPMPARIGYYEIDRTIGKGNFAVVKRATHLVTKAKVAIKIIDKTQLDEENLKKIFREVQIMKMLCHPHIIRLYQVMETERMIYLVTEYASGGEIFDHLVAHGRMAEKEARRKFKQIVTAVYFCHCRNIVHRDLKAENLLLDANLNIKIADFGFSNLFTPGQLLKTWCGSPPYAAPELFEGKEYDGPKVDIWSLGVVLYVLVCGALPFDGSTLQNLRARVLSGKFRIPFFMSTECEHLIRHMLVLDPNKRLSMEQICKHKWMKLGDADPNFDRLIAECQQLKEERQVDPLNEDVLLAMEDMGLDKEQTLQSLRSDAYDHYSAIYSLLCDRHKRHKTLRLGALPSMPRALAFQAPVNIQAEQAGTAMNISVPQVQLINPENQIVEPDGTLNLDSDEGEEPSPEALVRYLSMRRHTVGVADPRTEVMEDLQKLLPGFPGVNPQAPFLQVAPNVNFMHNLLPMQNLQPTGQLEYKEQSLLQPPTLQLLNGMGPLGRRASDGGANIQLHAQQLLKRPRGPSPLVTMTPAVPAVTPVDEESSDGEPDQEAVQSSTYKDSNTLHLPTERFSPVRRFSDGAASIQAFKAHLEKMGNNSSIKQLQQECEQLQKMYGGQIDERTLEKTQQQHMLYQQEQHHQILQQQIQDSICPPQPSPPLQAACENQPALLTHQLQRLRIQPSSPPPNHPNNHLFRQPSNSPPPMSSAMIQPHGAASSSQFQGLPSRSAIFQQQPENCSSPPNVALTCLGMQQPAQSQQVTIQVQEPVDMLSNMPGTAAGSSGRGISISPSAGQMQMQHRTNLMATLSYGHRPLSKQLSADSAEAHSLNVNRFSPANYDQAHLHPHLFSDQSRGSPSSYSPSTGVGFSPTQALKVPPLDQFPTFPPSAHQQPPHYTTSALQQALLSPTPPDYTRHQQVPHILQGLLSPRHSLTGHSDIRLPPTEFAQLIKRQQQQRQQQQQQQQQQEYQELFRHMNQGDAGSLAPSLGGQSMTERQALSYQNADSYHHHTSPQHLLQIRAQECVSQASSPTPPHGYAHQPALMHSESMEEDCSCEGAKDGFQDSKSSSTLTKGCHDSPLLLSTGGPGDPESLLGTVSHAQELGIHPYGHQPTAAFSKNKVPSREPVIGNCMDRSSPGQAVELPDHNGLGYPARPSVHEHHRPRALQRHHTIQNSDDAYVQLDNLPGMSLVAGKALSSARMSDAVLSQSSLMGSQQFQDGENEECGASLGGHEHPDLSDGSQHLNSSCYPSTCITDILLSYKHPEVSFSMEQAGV

Recombinant SIK2 = Recombinant SIK2 (Homo sapiens (Human), UniProt Q9H0K1); experiment: biochemical; details: recombinant SIK2 2.5 nM, 1 μM ATP; read-out: SIK2 IC50
Recombinant SIK2, sequence (Q9H0K1 whole entry, the tested form may be a part): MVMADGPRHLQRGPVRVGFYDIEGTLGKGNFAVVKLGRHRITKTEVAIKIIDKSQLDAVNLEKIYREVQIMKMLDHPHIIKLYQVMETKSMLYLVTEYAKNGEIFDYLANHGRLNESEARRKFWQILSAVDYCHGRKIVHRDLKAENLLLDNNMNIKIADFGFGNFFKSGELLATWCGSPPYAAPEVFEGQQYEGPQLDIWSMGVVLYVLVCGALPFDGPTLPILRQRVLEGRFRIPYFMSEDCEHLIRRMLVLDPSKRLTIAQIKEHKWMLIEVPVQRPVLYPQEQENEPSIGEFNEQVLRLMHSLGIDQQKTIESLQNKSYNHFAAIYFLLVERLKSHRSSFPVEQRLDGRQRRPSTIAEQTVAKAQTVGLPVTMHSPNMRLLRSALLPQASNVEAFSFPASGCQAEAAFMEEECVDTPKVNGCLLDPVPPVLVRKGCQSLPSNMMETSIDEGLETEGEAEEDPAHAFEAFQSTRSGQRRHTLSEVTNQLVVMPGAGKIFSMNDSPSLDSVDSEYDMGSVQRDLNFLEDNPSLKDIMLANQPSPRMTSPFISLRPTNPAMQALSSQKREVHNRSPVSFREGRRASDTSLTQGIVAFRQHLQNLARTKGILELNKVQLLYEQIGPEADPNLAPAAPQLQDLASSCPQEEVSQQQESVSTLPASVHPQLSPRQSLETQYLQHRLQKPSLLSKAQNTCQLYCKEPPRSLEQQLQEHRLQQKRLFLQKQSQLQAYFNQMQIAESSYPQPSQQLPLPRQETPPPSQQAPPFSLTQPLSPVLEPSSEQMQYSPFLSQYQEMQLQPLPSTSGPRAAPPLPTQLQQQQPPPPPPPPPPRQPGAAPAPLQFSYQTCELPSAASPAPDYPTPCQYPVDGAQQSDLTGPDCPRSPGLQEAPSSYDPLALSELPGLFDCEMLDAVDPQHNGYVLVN

[7] = target: NanoLuc-SIK2 fusion in HEK293 cells (Homo sapiens (Human), UniProt Q9H0K1); experiment: cell-based; details: HEK293T cells; read-out: IC50 for SIK2 (nanoBRET)
NanoLuc-SIK2 fusion in HEK293 cells, sequence (Q9H0K1 whole entry, the tested form may be a part): as above

SIK1 in HEK293T cells = SIK1 in HEK293T cells (Homo sapiens (Human), UniProt P57059); experiment: cell-based; details: read-out: IC50 for SIK1 (nanoBRET)
SIK1 in HEK293T cells, sequence (P57059 whole entry): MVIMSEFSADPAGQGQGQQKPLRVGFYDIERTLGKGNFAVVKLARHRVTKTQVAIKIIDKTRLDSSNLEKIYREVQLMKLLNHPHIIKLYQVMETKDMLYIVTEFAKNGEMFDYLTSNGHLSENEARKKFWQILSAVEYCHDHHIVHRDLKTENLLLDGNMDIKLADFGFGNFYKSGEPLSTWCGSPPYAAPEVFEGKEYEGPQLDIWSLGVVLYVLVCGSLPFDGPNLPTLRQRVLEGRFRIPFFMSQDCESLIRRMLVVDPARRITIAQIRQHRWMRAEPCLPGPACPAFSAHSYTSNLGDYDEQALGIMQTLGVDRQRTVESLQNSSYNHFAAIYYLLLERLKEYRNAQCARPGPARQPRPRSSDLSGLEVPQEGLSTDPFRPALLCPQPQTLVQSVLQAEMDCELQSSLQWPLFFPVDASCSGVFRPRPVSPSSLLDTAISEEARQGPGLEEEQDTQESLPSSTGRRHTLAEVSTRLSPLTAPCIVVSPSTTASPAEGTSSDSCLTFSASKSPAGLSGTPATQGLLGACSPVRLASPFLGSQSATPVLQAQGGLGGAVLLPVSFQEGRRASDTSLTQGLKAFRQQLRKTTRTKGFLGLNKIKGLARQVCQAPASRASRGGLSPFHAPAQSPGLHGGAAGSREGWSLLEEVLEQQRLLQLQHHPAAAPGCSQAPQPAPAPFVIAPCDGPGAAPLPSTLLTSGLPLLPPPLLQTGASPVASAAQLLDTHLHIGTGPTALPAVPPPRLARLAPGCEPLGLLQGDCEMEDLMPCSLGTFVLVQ

SIK1 = SIK1 (Homo sapiens (Human), UniProt P57059); experiment: In vitro SIK1 kinase assay; type: biochemical
SIK1, sequence (P57059 whole entry): as above

SIK3 = SIK3 (Homo sapiens (Human), UniProt Q9Y2K2); experiment: In vitro SIK3 kinase assay; type: biochemical
SIK3, sequence (Q9Y2K2 whole entry): as the sequence (Q9Y2K2 whole entry) above

**Q.** Which results are given for CCc1nnc(-c2c(OC)cc(-c3cnc4cc(-c5cnn(C)c5)ccn34)cc2OC)o1 [Example 51, 2-[2,6-Dimethoxy-4-[7-(1-methylpyrazol-4-yl)imidazo[1,2-a]pyridin-3-yl]phenyl]-5-ethyl-1,3,4-oxadiazole]?
**A.** serum drug levels ([1]; 2 hours after oral gavage on day 13, 3 dose groups): increased in a dose-dependent manner; also recorded: Dose-dependent increases; tolerability (health concerns, weight loss, toxicities) ([1]; mice, once daily oral gavage for 3 weeks): without obvious health concerns or weight loss; also recorded: without obvious toxicities; Ctsk (cathepsin K) expression in cortical bone ([2]; RT-qPCR): expression was increased; also recorded: increases the expression; Sost mRNA (sclerostin gene expression) in cortical bone ([2]; RT-qPCR): reduced sclerostin gene expression; Spp1 (osteopontin) expression in cortical bone ([2]; RT-qPCR): expression was increased; also recorded: increases the expression of Spp1; sclerostin protein levels in bone ([2]; immunohistochemistry): reduced; SOST expression (SOST): reduces SOST; SOST expression (SOST; listed as cmpd. 51): suppressed SOST expression; also recorded: suppression of SOST expression; HDAC4/5 phosphorylation (HDAC4/5): reduces levels of HDAC4/5 phosphorylation; HDAC4/5 phosphorylation (HDAC4/5; listed as Cmpd. 51): reduced phosphorylated HDAC4/5 levels; HDAC4/5 phosphorylation (HDAC4/5; listed as cmpd. 51): dose-dependent reduction of phosphorylation; EC50 (CRTC2 (TORC2); Homo sapiens, U2OS, read-out: CRTC2 nuclear translocation EC50): 147 nM; CRTC2 Efficacy (% of forskolin) (CRTC2 (TORC2); maximal CRTC2 nuclear translocation, U2OS cells, 90 minutes, maximum dose 10 μM): 86.5 % of forskolin; RANKL expression (RANKL): stimulates RANKL expression; RANKL expression (RANKL; listed as cmpd. 51): increased RANKL; also recorded: induction of RANKL; serum CTX (bone resorption marker) ([3]; listed as Cmpd. 51): increasing this marker of bone remodeling; serum P1NP (bone formation marker) ([3]; listed as Cmpd. 51): increasing this marker of bone remodeling; serum CTX (bone resorption marker) ([3]; listed as cmpd. 51): increased; serum P1NP (bone formation marker) ([3]; listed as cmpd. 51): increased P1NP; serum 1,25-vitamin D ([3]; listed as Cmpd. 51): increased serum 1,25-vitamin D; serum BUN ([3]; listed as Cmpd. 51): did not affect serum BUN levels; serum PTH levels ([3]; listed as Cmpd. 51): suppressed PTH levels; serum calcium ([3]; listed as Cmpd. 51): increased serum calcium; serum phosphorus ([3]; listed as Cmpd. 51): did not affect serum phosphorus levels; serum 1,25-vitamin D ([3]; listed as cmpd. 51): increased 1,25-vitamin D levels; serum BUN ([3]; listed as cmpd. 51): did not alter; serum PTH levels ([3]; listed as cmpd. 51): reduced serum PTH levels; serum calcium ([3]; listed as cmpd. 51): increased calcium; serum phosphorus ([3]; listed as cmpd. 51): did not alter; oral availability ([4]; single dose of 10 mg/kg): excellent oral availability; maximum serum concentration ([4]; single oral dose of 10 mg/kg): 11 µM; primary spongiosa bone mineral density (BMD), microCT ([5]; distal femur, 40 mg/kg): increased bone mineral density (BMD); primary spongiosa bone volume fraction (BV/TV), microCT ([5]; distal femur, 40 mg/kg): increased primary spongiosa bone volume fraction (BV/TV); midshaft cortical bone tissue mineral density (TMD), microCT ([5]; listed as Cmpd. 51): increased cortical bone tissue mineral density; midshaft cortical bone tissue mineral density (TMD), microCT ([5]; listed as cmpd. 51): gains in bone mass; TRAP-positive osteoclasts (tibia sections) ([6]; cmpd. 51 40 mg/kg): increased TRAP-positive osteoclasts; osteoblasts (tibia sections) ([6]; cmpd. 51 40 mg/kg): increased osteoblasts; trabecular bone (tibia sections, hematoxylin and eosin) ([6]; cmpd. 51 40 mg/kg): increased trabecular bone mass; bone formation rate (BFR/BS), histomorphometry ([6]; distal femur metaphysis): increased the bone formation rate; bone volume fraction (BV/TV), histomorphometry ([6]; distal femur metaphysis): increased bone volume fraction (BV/TV); also recorded: increased trabecular bone mass; matrix apposition rate (MAR), histomorphometry ([6]; distal femur metaphysis): increased matrix apposition rate; mineralizing surface (MS/BS), histomorphometry ([6]; distal femur metaphysis): Neither cmpd. 51 nor PTH treatment increased; osteoblast surfaces (Ob.S.BS), histomorphometry ([6]; distal femur metaphysis): increased osteoblast surfaces; osteoclast numbers (N.Oc/B.Pm), histomorphometry ([6]; distal femur metaphysis): increased osteoclast numbers

**Q.** What does the source list for CCc1nnc(-c2c(OC)cc(-c3cnc4cc(-c5cnn(C6CC6)c5)ccn34)cc2OC)o1 [Example 55, 2-[4-[7-(1-Cyclopropylpyrazol-4-yl)imidazo[1,2-a]pyridin-3-yl]-2,6-dimethoxy-phenyl]-5-ethyl-1,3,4-oxadiazole]?
**A.** IC50 (SIK3 in HEK293T cells): 4.48 nM; IC50 (Recombinant SIK2): 1.48 nM; IC50 [7]: 12.2 nM; IC50 (SIK1 in HEK293T cells): 2100 nM; IC50 (SIK1): 16 nM; RANKL Fold Induction (RANKL; maximal RANKL fold induction versus DMSO, four hours): 22.80 fold; IC50 (SIK3): 2.66 nM
